≈ marks a conversion by molar mass, not a printed value. Where only a bound is given, the exact number is not on record here.

Data set [1] is described as follows: Spontaneous hydrolysis rate of substrates (stability). Format: physicochemical. The conditions noted are these: room temperature; normalized to 10 μg/ml starting concentration of substrate. The protocol: (§1) Table 1 gives the absorbance wavelength maximum (λmax) for the substrate and the reaction product, the molar extinction coefficient ε for the substrate and the reaction product, the solubility, and the spontaneous hydrolysis rate of the new substrates (stability). ONPG, the standard β-galactosidase substrate, is listed for comparision.
*Hydrolysis is measured at room temperature. Results are normalized to 10
μg/ml starting concentration of substrate.

A short description of the next data set: Solubility of substrates. The class given is physicochemical.
Excerpt: as §1

Data set [2] can be described thus: Absorbance wavelength maximum and molar extinction coefficient of substrate and reaction product. Format: physicochemical. Conditions: for Product λmax / Product ε: reaction product; for Product ε / Substrate ε: molar extinction coefficient.
Excerpt: as §1

The target in data set [3] is β-galactosidase (Escherichia coli, UniProt P00722). The data set can be described thus: Kinetic properties of substrates with β-galactosidase. The class given is biochemical. The conditions noted are these: for Vm Ratio to ONPG: relative to ONPG; for Km: four or five substrate concentrations. The protocol: (§2) The ability of the subject compounds to act as substrates for β-galactosidase and ED28-digoxigenin+EA was measured and compared with the results obtained with ONPG. ED28-digoxigenin+EA are a β-galactosidase α fragment-digoxigenin conjugate and the α complementation acceptor, respectively. ED28-digoxigenin consists of β-galactosidase amino acids 1-46, with cysteines at positions 1 and 46, and digoxgenin conjugated to the cysteines. Assays involving ED and EA are described in greater detail in U.S. Pat. No. 4,708,929. E28-digoxigenin and EA are usually components of a CEDIA™ assay; however, in this set of experiments, antibodies are not present. Four or five substrate concentrations were used to obtain the results. The turnover figures are given for EA+ED28-digoxigenin, not β-galactosidase.
Chain of β-galactosidase (Escherichia coli, UniProt P00722) (P00722 2-1024): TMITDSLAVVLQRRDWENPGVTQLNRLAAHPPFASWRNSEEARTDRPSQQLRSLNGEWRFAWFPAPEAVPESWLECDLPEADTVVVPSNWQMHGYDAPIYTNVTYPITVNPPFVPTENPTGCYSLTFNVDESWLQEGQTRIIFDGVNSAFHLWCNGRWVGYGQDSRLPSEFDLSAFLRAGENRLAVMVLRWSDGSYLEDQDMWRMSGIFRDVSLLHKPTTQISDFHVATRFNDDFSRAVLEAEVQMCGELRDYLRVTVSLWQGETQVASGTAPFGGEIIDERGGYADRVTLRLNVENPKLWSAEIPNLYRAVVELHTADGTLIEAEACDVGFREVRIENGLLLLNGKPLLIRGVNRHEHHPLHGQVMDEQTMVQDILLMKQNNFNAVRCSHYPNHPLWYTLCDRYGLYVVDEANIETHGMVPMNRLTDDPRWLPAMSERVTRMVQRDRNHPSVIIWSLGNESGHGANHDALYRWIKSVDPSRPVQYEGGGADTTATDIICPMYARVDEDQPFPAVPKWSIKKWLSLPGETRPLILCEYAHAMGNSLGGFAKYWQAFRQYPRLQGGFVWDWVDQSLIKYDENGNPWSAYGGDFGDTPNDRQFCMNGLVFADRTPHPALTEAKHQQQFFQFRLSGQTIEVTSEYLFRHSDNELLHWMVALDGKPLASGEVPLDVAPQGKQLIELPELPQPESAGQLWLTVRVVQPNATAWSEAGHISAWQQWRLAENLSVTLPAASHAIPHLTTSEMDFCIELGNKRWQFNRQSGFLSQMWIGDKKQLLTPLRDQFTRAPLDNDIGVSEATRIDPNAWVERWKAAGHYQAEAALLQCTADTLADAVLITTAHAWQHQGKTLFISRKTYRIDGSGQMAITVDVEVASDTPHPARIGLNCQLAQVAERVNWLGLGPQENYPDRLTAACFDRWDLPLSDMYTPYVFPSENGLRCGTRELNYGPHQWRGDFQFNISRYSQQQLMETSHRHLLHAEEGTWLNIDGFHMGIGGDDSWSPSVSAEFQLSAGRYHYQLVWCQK

The test system of a further data set is EA + ED28-digoxigenin. The data set can be described thus: Kinetic properties of substrates with EA + ED28-digoxigenin. The class given is biochemical. Conditions: for Km / Vm Ratio to ONPG: no antibodies; for Km: four or five substrate concentrations; for Vm Ratio to ONPG / Turnover % ONPG: relative to ONPG. Here is the method:
as §2

The subject of data set [4] is β-galactosidase. The data set can be described thus: CEDIA digoxin assay with new substrates. Format: biochemical. The conditions noted are these: relative to OCNPG, [Substrate]/Km 4.0x; for % Open: absence of antibody; for % Inhib: inhibitory antibody; for High calib % Mod / High calib % Net: saturating analyte. The text has this:
(§3) β-galactosidase-analyte conjugates may be used in a variety of diagnostic assays. The subject compounds may be used in conjunction with these assays. Such assays may be used to determine the presence and/or concentration of various compounds, including specific proteins, carbohydrates, and polynucleotides. The assays may be heterogenous, including ELISA assays. In particular the subject compounds may be employed in CEDIA™ assays. CEDIA™ assays measure the amount of an analyte by means of the ability of the analyte to affect the observed enzyme activity when employing an anti-analyte antibody binding reaction to a β-galactosidase α complementing fragment conjugated to analyte or cross reactive compound. In the absence of free analyte, the observed β-galactosidase activity is lower. Thus in CEDIA™ assays β-galactosidase activity increases as the amount of analyte increases. CEDIA™ assays make use of the α complementation phenomenon between ED and EA as described in detail in U.S. Pat. No. 4,708,929.
(§4) The ability of the new substrates to function in CEDIA™ assays was tested. All values are relative to reaction rates using OCNPG (o-chloro-nitrophenyl-β-D-galactopyranoside). […] CEDIA™ assays for T3 (the thyroid hormone, triiodothyronine), digoxin, and folate were performed.
(§5) The terms in table 3 are defined as follows. [Substrate]/Km is the ratio of the concentation of substrate used in the assay to the Km of the enzyme for that substrate. The %open, %inhibition, %mod, and %net figures are all given relative to the results obtained with OCNPG.
(§6) %Open is the reaction rate in the absence of antibody. The figure given in table 3 is the reaction rate relative to the reaction rate obtained with OCNPG.
(§7) %Inhibition is defined as the difference between the reaction rate rate in the absence of antibody and the reaction rate in the presence of the inhibitory antibody found in the CEDIA™ assays, divided by the reaction rate in the absence of antibody. The figures given in table 3 are relative to the % inhibition figure obtained with OCNPG as substrate.
(§8) %Net is defined as the difference between the reaction rate of a CEDIA™ assay using the test substrate in the absence of analyte and presence of antibody and the same reaction in the presence of a saturating amount of analyte (i.e. maximum attainable reaction rate) and presence of antibody, divided by the difference between the reaction rate using OCNPG in the absence of analyte and presence of antibody, and the reaction rate with OCNPG using a saturating amount of analyte and presence of antibody.
(§9) %Mod is defined as the difference between the reaction rate of a CEDIA™ assay in the absence of analyte and presence of antibody and the same reaction in the presence of a saturating amount of analyte (i.e., maximum attainable reaction rate) and presence of antibody, divided by the same figure obtained for the reaction rate in the presence of a saturating amount analyte. The greater the %mod, the greater the range of analyte concentrations over which the assay will be effective. The figure given in Table 3 is the mod figure obtained for the new subtrate, divided by the %mod figure divided %mod figure obtained for OCNPG.

Data set [5] has as its system β-galactosidase. Nature of the data set: CEDIA folate assay with new substrates. Conditions: relative to OCNPG, [Substrate]/Km: DNPG 3.2x, m-CN-NPG 2.5x, NGPG 3.2x; for % Open: absence of antibody; for % Inhib: inhibitory antibody; for High calib % Mod / High calib % Net: saturating analyte. The class given is biochemical.
Excerpt: as §3, §4, §5, §6, §7, §8, §9

Data set [6] has as its system β-galactosidase. Nature of the data set: CEDIA T3 assay with new substrates. Format: biochemical. The conditions noted are these: for % Open / % Inhib / High calib % Mod / High calib % Net: T3 assay, relative to OCNPG, [Substrate]/Km: DNPG 3.3x, m-CN-NPG 4.1x, NGPG 2.0x; for % Open: absence of antibody; for % Inhib: inhibitory antibody; for High calib % Mod / High calib % Net: saturating analyte.
Excerpt: as §3, §4, §5, §6, §7, §8, §9

In data set [7] the test system is β-galactosidase. Nature of the data set: CEDIA assays (T3, digoxin and folate), overall. The class given is biochemical.
Excerpt: as §3, §4
The terms in table 3 are defined as follows. […]

What is called Solubility is the concentration that dissolves in the medium under given conditions. Low readings indicate little dissolved substance, high ones much dissolved substance. As a reminder, the Km is the concentration of substrate that gives half-maximal velocity. In [1], `O=[N+]([O-])c1ccc(O[C@@H]2O[C@H](CO)[C@H](O)[C@H](O)[C@H]2O)cc1[N+](=O)[O-]` [3,4 DNPG, 3,4-Dinitrophenyl-β-D-galactopyranoside] gave a Hydrolysis of 6 mA/Day. The Solubility in “Solubility of substrates” came to 3000 µg/mL (≈ 8.66 mM). For the same compound, in data set [2], the “Product λmax” value was 400 nm, the “Product ε” value was 12400 OD/M, the “Substrate λmax” value is listed as 280 nm and the “Substrate ε” value was found to be 6000 OD/M. Further, at β-galactosidase [3], the “Vm Ratio to ONPG” value is recorded as 3.5. In the data set on EA + ED28-digoxigenin, the Michaelis-Menten constant (Km) was 0.19 mg/mL, the “Vm Ratio to ONPG” value is reported as 2.8 and the “Turnover % ONPG” value came to 70%. In addition, in the data set with β-galactosidase [4], the “% Open” value is recorded as 92%, the “% Inhib” value was determined as 74%, the “High calib % Mod” value came to 85% and the “High calib % Net” value was 72%. Besides, in the data set with β-galactosidase [5], the “% Open” value turned out to be 72%, the “% Inhib” value was 77%, the “High calib % Mod” value is listed as 76% and the “High calib % Net” value turned out to be 58%. For the same compound, in the data set on β-galactosidase [6], the “% Open” value amounted to 73%, the “% Inhib” value is on record as 93%, the “High calib % Mod” value worked out at 88% and the “High calib % Net” value is listed as 71%.
`COc1cc([N+](=O)[O-])ccc1O[C@@H]1O[C@H](CO)[C@H](O)[C@H](O)[C@H]1O` [NGPG, o-Methoxy-p-nitrophenyl-β-D-galactopyranoside] yielded a Hydrolysis in data set [1] of 1 mA/Day. Also, the Solubility in “Solubility of substrates” amounted to 1000 µg/mL (≈ 3.02 mM). In data set [2], the “Product λmax” value came out at 430 nm, the “Product ε” value is on record as 17600 OD/M, the “Substrate λmax” value came to 298 nm and the “Substrate ε” value was found to be 7400 OD/M. Further, at β-galactosidase [3], the “affinity compared with ONPG (in words)” value is reported as “somewhat lower affinity than ONPG” and the “Vm Ratio to ONPG” value is 3.7. Also, in the data set with EA + ED28-digoxigenin, the “affinity compared with ONPG (in words)” value is on record as “somewhat lower affinity than ONPG”, the Km stood at 0.28 mg/mL, the “Vm Ratio to ONPG” value turned out to be 3.6 and the “Turnover % ONPG” value amounted to 56%. Also, in the data set on β-galactosidase [4], the “% Open” value is given as 81%, the “% Inhib” value is on record as 98%, the “High calib % Mod” value is listed as 85% and the “High calib % Net” value was 72%. In the data set with β-galactosidase [5], the “% Open” value amounted to 85%, the “% Inhib” value is 104%, the “High calib % Mod” value is given as 102% and the “High calib % Net” value is listed as 84%. Besides, in the data set on β-galactosidase [6], the “% Open” value came to 41%, the “% Inhib” value is listed as 87%, the “High calib % Mod” value amounted to 82% and the “High calib % Net” value was determined as 37%.
Take `O=Cc1cc([N+](=O)[O-])ccc1O[C@@H]1O[C@H](CO)[C@H](O)[C@H](O)[C@H]1O` [NSPG]: the Hydrolysis in data set [1] was found to be 19 mA/Day. Moreover, in “Solubility of substrates”, the Solubility was less than 40000 µg/mL and the “solubility (in words)” value is “high aqueous solubility”. Also, in data set [2], the “Product λmax” value was found to be 382 nm, the “Product ε” value was 16500 OD/M, the “Substrate λmax” value amounted to 298 nm and the “Substrate ε” value worked out at 14900 OD/M. Moreover, at β-galactosidase [3], the Km was 334 µM and the “Vm Ratio to ONPG” value was 3.2. Further, in the data set with EA + ED28-digoxigenin, the Km was determined as 0.14 mg/mL, the “Vm Ratio to ONPG” value is recorded as 3.0 and the “Turnover % ONPG” value stood at 54%.
`O=[N+]([O-])c1ccccc1O[C@@H]1O[C@H](CO)[C@H](O)[C@H](O)[C@H]1O` [ONPG, o-nitrophenyl-β-D-galactopyranoside, reference compound] yielded a Hydrolysis in data set [1] of 0.4 mA/Day. For the same compound, the Solubility in the data set “Solubility of substrates” is 10000 µg/mL (≈ 33.2 mM). In [2], the “Product λmax” value was 414 nm, the “Product ε” value was found to be 3000 OD/M, the “Substrate λmax” value is reported as 315 nm and the “Substrate ε” value is on record as 2000 OD/M. Besides, on β-galactosidase [3], the Km is 266 µM and the “Vm Ratio to ONPG” value worked out at 1.0. In addition, in the data set on EA + ED28-digoxigenin, the Km came out at 0.15 mg/mL, the “Vm Ratio to ONPG” value is listed as 1.0 and the “Turnover % ONPG” value worked out at 100%. Besides, the “signal in CEDIA assays (in words)” value in the data set on β-galactosidase [7] is “exceptionally weak signal”.
`N#Cc1cc(O[C@@H]2O[C@H](CO)[C@H](O)[C@H](O)[C@H]2O)ccc1[N+](=O)[O-]` [m-CN-NPG, m-Cyano-p-nitrophenyl-β-D-galactopyranoside] returned a Hydrolysis in data set [1] of 5 mA/Day. In addition, in “Solubility of substrates”, the Solubility was less than 8000 µg/mL. Besides, in data set [2], the “Product λmax” value is reported as 405 nm, the “Product ε” value worked out at 17000 OD/M, the “Substrate λmax” value is on record as 308 nm and the “Substrate ε” value amounted to 9200 OD/M. The “Vm Ratio to ONPG” value at β-galactosidase [3] is 3.0. Further, in the data set with EA + ED28-digoxigenin, the Km was determined as 0.14 mg/mL, the “Vm Ratio to ONPG” value came out at 2.4 and the “Turnover % ONPG” value was found to be 44%. Further, in the data set on β-galactosidase [4], the “% Open” value was 82%, the “% Inhib” value turned out to be 91%, the “High calib % Mod” value turned out to be 85% and the “High calib % Net” value was 71%. Also, in the data set with β-galactosidase [5], the “% Open” value amounted to 62%, the “% Inhib” value was 93%, the “High calib % Mod” value worked out at 103% and the “High calib % Net” value was determined as 72%. For the same compound, in the data set with β-galactosidase [6], the “% Open” value is 71%, the “% Inhib” value amounted to 100%, the “High calib % Mod” value turned out to be 100% and the “High calib % Net” value is 63%. In addition, the “T3 assay results on increasing substrate concentration (in words)” value in the data set with β-galactosidase [6] (substrate increased from 2.7×Km to 4.1×Km) is on record as “improved”.

The values are drawn from US5444161A, “Substrates for β-galactosidase” (Microgenics Corporation, priority 1989, dated 1995).
